What all share (format): functional
Assay [1] concerns Neisseria meningitidis. The experiment in a line: Antimicrobial activity against fluoroquinolone-susceptible Neisseria meningitidis by disk diffusion method. As to conditions: for MIC: Neisseria meningitidis. (Agar diffusion results depend on both activity and mobility in agar.)
For assay [2], the system named is Neisseria meningitidis. Description: Antimicrobial activity against fluoroquinolone-intermediate Neisseria meningitidis by disk diffusion method.
Assay [3] concerns Neisseria meningitidis. Description: Antimicrobial activity against fluoroquinolone-resistant Neisseria meningitidis expressing gyrA mutant by disk diffusion method.
Assay [4] concerns Neisseria meningitidis. The experiment in a line: Antimicrobial activity against fluoroquinolone-resistant Neisseria meningitidis expressing gyrA mutant at 30 ug by disk diffusion method. To be noted: read-out: IZ.
In assay [5] the test system is Neisseria meningitidis. The experiment in a line: Antimicrobial activity against fluoroquinolone-susceptible Neisseria meningitidis at 30 ug by disk diffusion method. To be noted: read-out: IZ.

A word on the MIC: it is the least concentration at which growth counts as inhibited. A low value points to inhibition by little substance.

Each structure is given as a SMILES string. Values after ≈ are worked out from the molar mass of the structure shown.

For the compound `O=C(O)c1cn(C2CC2)c2cc(N3CCNCC3)c(F)cc2c1=O` [CIPROFLOXACIN], the “inhibition zone (IZ)” value in assay [1] amounted to 34 mm; in assay [2], 35 mm; in assay [3] it was 29 mm. The MIC is at most 0.03 µg/mL in assay [1], 0.06 µg/mL (≈ 0.181 µM) in assay [2] (Neisseria meningitidis) and at least 0.12 µg/mL in assay [3] (Neisseria meningitidis).

On to `CCn1cc(C(=O)O)c(=O)c2ccc(C)nc21` [NALIDIXIC ACID], for which the lowest concentration to inhibit growth in assay [1] (MIC) was 0.25 µg/mL (≈ 1.08 µM). Besides, the zone of inhibition at 30 µg/disc was below 15 mm in assay [4] and 28 mm in assay [5].

These data come from ChEMBL document CHEMBL1629607, “Nalidixic acid disk for laboratory detection of ciprofloxacin resistance in Neisseria meningitidis” (2009).
